Data published in patent US8426369B2, “Prevention and treatment of colon cancer” (Rutgers, The State University of New Jersey, priority 2006, dated 2013).
Like-named read-outs stand apart in the source and are kept apart here.

Tests used:
TNF-α mRNA = test: Quantitative RT-PCR of cytokine-induced TNF-α mRNA in HT-29 cells; type: cell-based, human
Experimental: (§1) The cell culture conditions and the reagents used in this example were described in Example 32. The gene-mediated expression of iNOS and COX-2 are reported to be regulated at both the transcriptional and translational levels. In order to understand the effect of pterostilbene on cytokine-induced expression of proinflammatory enzymes and cytokines, RNA samples after treatment of HT-29 cells with cytokines and/or pterostilbene were analyzed by quantitative RT-PCR for the induction of mRNA levels of iNOS, COX-2, IL-1β, IFN-γ and TNF-α genes.
(§2) To determine the changes of mRNA levels by pterostilbene and cytokines, quantitative RT-PCR analysis was utilized, as described previously (Lee et al., Mol Pharmacol 2006; 69(6):1840-1848). Briefly, the cells were incubated with compounds for indicated period and the cells were then lysed using Trizol to extract RNA. RNA was reverse transcribed into cDNA using a high capacity cDNA archive kit (Applied Biosystems, Foster City, Calif.). The cDNA was used for quantitative PCR which was run on the ABI Prism […] sequence Detection System. The primers for the iNOS, COX-2, IFN-γ, TNF-α, IL-1β and GAPDH were obtained from Applied Biosystems (Foster City, Calif.).

ATF2 = test: Western blot of cytokine-induced ATF2 phosphorylation in HT-29 cells; type: cell-based, human; details: cytokine-treated HT-29
Experimental: (§3) The cell culture conditions and the reagents used in this example were described in Example 32. Whole cell extracts were collected after the various treatments and analyzed by western blotting. The protein samples were separated on 4-15% SDS-PAGE gels (Biorad, Hercules, Calif.) followed by transfer to a polyvinylidene fluoride membrane. The membranes were blocked with 5% milk in Tris buffer for 1 h and then incubated with the appropriate primary antibody solutions overnight at 4° C. The membranes were washed with Tris buffer, and incubated with horseradish peroxidase conjugated secondary antibody solutions for 1 h at room temperature.
The protein bands were visualized using a chemiluminescence based kit from Amersham Biosciences (Buckinghamshire, UK). The primary antibodies against iNOS, COX-2, IκBα, cyclin D1, c-myc (Santa Cruz Bio-technology, Santa Cruz, Calif.), phospho-STAT3, phospho-Erk1/2, phospho-JNK1/2, phospho-p38, phospho-Akt, phospho-ATF2, phospho-Elk1, PARP (Cell Signaling Technology Inc., Beverly, Mass.) and actin (Sigma, St. Louis, Mo.) and secondary antibodies (Santa Cruz Biotechnology, Santa Cruz, Calif.) were used for probing the abundance of the target protein in the samples. […]

COX-2 mRNA = test: Quantitative RT-PCR of cytokine-induced COX-2 mRNA in HT-29 cells; type: cell-based, human; details: 10 and 30 μM
Experimental: as §1, §2

iNOS = iNOS immunostaining of colon sections; type: in vivo, male F344 rats; details: 40 ppm in diet, AOM-treated rats
Experimental: Animals were treated as described in Example 27. Colon samples from each group were harvested at autopsy and fixed in 10% formalin for 24 hr. They were sectioned into 8 to 10 segments, paraffin embedded, and microtomed into 4 μm thick tissue sections. The slides were incubated overnight at room temperature with antibody to proliferating cell nuclear antigen (PCNA) (1:1000 diluted, BD Pharmingen, San Diego, Calif.), iNOS (1:100 diluted, Santa Cruz Biotechnology, Santa Cruz, Calif.), or mucin MUC2 (1:250 diluted, Santa Cruz Biotechnology, Santa Cruz, Calif.).
The slides were incubated with the biotinylated secondary antibody, and then with avidin/biotinylated peroxidase complex for 30 min at room temperature (Vector Labs, Burlingame, Calif.), and were incubated with […] (DAB) substrate. The sections were then counter-stained with Modified Harris Hematoxylin. The images were taken randomly at 400× using Zeiss AxioCam HRc camera fitted to a Zeiss Axioskope 2 Plus microscope. A positive reaction is noted by a reddish brown precipitate in the nucleus for PCNA, in the cytoplasm for iNOS or in the colon crypts for mucin MUC2.

IκBα = test: Western blot of IκBα after cytokine treatment of HT-29 cells; type: cell-based, human; details: cytokine treatment 15 min
Experimental: as §3
The protein bands were visualized using a chemiluminescence based kit from Amersham Biosciences (Buckinghamshire, UK). The primary antibodies against iNOS, COX-2, IκBα, cyclin D1, c-myc (Santa Cruz Bio-technology, Santa Cruz, Calif.), phospho-STAT3, phospho-Erk1/2, phospho-JNK1/2, phospho-p38, phospho-Akt, phospho-ATF2, phospho-Elk1, PARP (Cell Signaling Technology Inc., Beverly, Mass.) and actin (Sigma, St. Louis, Mo.) and secondary antibodies (Santa Cruz Biotechnology, Santa Cruz, Calif.) were used for probing the abundance of the target protein in the samples.
The significance of the JAK-STAT pathway in HT-29 cells was evaluated by probing for phospho-STAT3. Cytokines activated the STAT pathway, as shown by a strong induction of phospho-STAT3.

[1] = test system: azoxymethane-induced aberrant crypt foci (ACF); test: Azoxymethane-induced aberrant crypt foci (ACF) in rat colon, dietary pterostilbene; type: in vivo, male F344 rats; details: for inhibition at 40 ppm: Rattus norvegicus, feed or water, 40 ppm in diet, compared to control diet
Experimental: Weanling male F344 rats were obtained from Charles River Breeding Laboratories (Kingston, N.Y.). All experimental diets were purchased from Research Diets (New Brunswick, N.J.) and stored at 4° C. All animals were randomly distributed by weight into control and experimental groups and housed in plastic cages with filter tops (three per cage) under controlled conditions of a 12-hr light and dark cycle, 50% humidity and 21° C. temperature. Animals had access to food and water at all times. Food cups were replenished with fresh diet two times weekly.
Beginning at 5 weeks of age, all rats were fed the modified American Institute of Nutrition-76A (AIN-76A) diet. At 7 weeks of age, the animals were given s.c. injections of azoxymethane (AOM) (CAS no. 25843-45-2, Ash Stevens, Detroit, Mich.) once weekly for 2 weeks at a dose rate of 15 mg/kg body weight. One day after the second AOM injection, groups of animals (n=9 per group) were maintained on AIN-76A diet alone and AIN-76A diet containing 40 ppm pterostilbene. […] See, e.g., U.S. Application Publication No. US 2006-0057231 A1.
On the average, the animal consumed about 0.6 mg pterostilbene per day. All rats were weighed once weekly until termination of the study at 8 weeks after the second AOM treatment were sacrificed by CO2 asphyxiation. After laparotomy, the entire stomach, small intestine, and large intestine were resected. The organs were opened longitudinally, and the contents were flushed with normal saline.
For the ACF analysis, the colons were fixed flat between two pieces of filter paper in 10% buffered formalin for a minimum of 24 hr. The colons were then cut into 2-cm segments, starting at the anus. They were stained with 0.2% methylene blue in Krebs-Ringer solution for 5-10 min, and were then placed mucosal side up on a microscope slide and observed through a light microscope. ACF were counted and recorded according to standard procedures that are being used routinely in the laboratory. […] The parameters used to assess the aberrant crypts were their occurrence and multiplicity. Crypt multiplicity was determined as the number of crypts in each focus. Multicrypts were categorized as containing up to four or more aberrant crypts/focus.
Total number of ACF/colon and multiple aberrant crypts/focus were counted and the data were analyzed by Student's t-test. The PCNA labeling index (PI) was calculated as the [(number of positive cells)/(total number of cells)]×100 for each field which is averaged to get the PI for each section. The significance of treatment between the groups was analyzed by Student's t-Test.

p65 subunit of NF-κB = test: Nuclear protein level of p65 subunit of NF-κB in HT-29 cells; type: cell-based, human; details: HT-29, data not shown
[2] = 40 ppm in AIN-76A diet, 8 weeks after second AOM treatment, Mean ± S.D. (n = 9)

COc1cc(/C=C/c2ccc(O)cc2)cc(OC)c1 [pterostilbene, (E)-4-(3,5-dimethoxystyryl)phenol]
TNF-α mRNA induction by the cytokine mixture (TNF-α mRNA): weak inhibitory effect
cytokine-induced activation (phosphorylation) of ATF2 (ATF2): effective in inhibiting
COX-2 mRNA induction by the cytokine mixture (COX-2 mRNA): strongly inhibited
iNOS staining of ACF with moderate dysplasia (iNOS): weak cytoplasmic staining
effects on IκBα induced by the cytokines (IκBα): did not block
>4 ACF/colon [1, 2]: 25.1 ± 5.6
ACF/colon [1, 2]: 117 ± 12
inhibition at 40 ppm ([1]; read-out: inhibition of multiple aberrant crypts/focus): 29%
inhibition at 40 ppm ([1]; read-out: inhibition of total ACF/colon): 57%
nuclear protein levels of the p65 subunit of NF-κB (p65 subunit of NF-κB): remained high and unaltered
